# According to US11254688B2 (Boehringer Ingelheim International GmbH, priority 2018, dated 2022):
# Molecular target: T1, hGOAT (Homo sapiens, UniProt Q96T53)
# T1 construct: expressed in transfected cells; host or cells: HEK293 (Hek293 hGOAT/PPGhrl Clone #1B8)
# T1 sequence (Q96T53 1-435): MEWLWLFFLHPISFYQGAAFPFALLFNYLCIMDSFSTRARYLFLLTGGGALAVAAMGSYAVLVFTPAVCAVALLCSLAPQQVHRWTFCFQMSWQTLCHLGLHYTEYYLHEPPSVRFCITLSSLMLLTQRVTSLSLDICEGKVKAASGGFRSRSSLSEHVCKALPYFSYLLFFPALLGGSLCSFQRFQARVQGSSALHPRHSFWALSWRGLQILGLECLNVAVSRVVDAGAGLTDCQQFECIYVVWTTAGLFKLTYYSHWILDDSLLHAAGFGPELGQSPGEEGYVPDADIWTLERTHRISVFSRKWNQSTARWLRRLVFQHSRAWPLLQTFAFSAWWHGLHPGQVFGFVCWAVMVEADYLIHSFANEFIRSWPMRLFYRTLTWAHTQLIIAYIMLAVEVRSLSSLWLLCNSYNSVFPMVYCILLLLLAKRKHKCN
# Test: Determination of hGOAT activity in HEK293 cells after incubation with test compound (acyl-ghrelin ELISA)
# Type: cell-based
# Conditions: HEK293 cells stably transfected with preproghrelin and human GOAT; octanoate-BSA 100 μM; 5 hours incubation; acyl-ghrelin in medium by ELISA; 8 compound concentrations
# Protocol: Determination of hGOAT Activity in HEK293 Cells after Incubation with Test Compound
# HEK293 cells stably transfected with two expression vectors, one coding for preproghrelin cDNA and a second for the expression of human GOATcDNA are used as a cellular model. After feeding the cells with octanoic acid for 5 hours, acyl-ghrelin is measured in cell culture medium by an ELISA procedure.
# Cellline: Hek293 hGOAT/PPGhrl Clone #1B8Sodium octanoate, Sigma, Cat.-No. C5038
# BD Poly-D-Lysin 384-well Plates, black-clear polystyrene BD Bioscience Cat.-No. […] ELISA human acylated Ghrelin Kit purchased from Bertin Pharman (detailed composition of buffers e.g. wash-puffer, ELISA buffer not known)
# Cells are plated with a density of 5000 cells/well in 384-well poly-D-lysin plates and incubated for 1 day at 37° C., 5% CO2 in DMEM medium, 10% FCS, 1×NEAA, Puromycin (0.5 μg/ml) and G418 (1 mg/ml). Then the medium is changed to a identical medium without FCS and containing Octanoate-BSA (final concentration 100 μM each) and compound in DMSO (final DMSO concentration 0,3%). After incubation for 5 hours acylghrelin in the medium is measured by ELISA.
# The medium sample is diluted 1:25 in Elisa buffer, a 25 μl aliquot is transferred to a 384-well ELISA plate previously washed 4 times with 100 μL wash buffer, and 25 μl tracer-solution is added. After incubation overnight (˜20 h) at 4° C. temperature the plate is washed 4 times with 100 μl wash-buffer per well. Finally 50 μl Ellman's reagent is added to each well and the plate is incubated in the dark for 20 minutes. The absorbance is measured at 405 nm in an Envision multilabel reader and the amount of acylated ghrelin is calculated according to a acylated ghrelin standard curve provided in the same plate.
# The analysis of the data is performed by calculation of the percentage of acyl-ghrelin produced in the presence of test compound compared to the amount of acyl-ghrelin produced in the vehicle control samples. An inhibitor of the GOAT enzyme will give values between 100% CTL (no inhibition) and 0% CTL (complete inhibition).
# IC50 values are calculated with Assay Explorer or other suited software based on curve fitting of results of 8 different compound concentrations.
row,Structure (SMILES),IC50 [nM]
1,"Cc1nc2nonc2c(N)c1Cc1ccc2nn(C)cc2c1 [Compound 4.34, 5-Methyl-6-[(2-methyl-2H-indazol-5-yl)methyl]-[1,2,5]oxadiazolo[3,4-b]pyridin-7-amine]",1.4
2,"Cc1nc2nonc2c(N)c1Cc1ccc(C2(C#N)CC(F)(F)C2)nc1 [Compound 4.28, 1-[5-({7-Amino-5-methyl-[1,2,5]oxadiazolo[3,4-b]Pyridin-6-yl}methyl)pyridin-2-yl]-3,3-difluorocyclobutane-1-carbonitrile]",1.5
3,"Cc1nc2nonc2c(N)c1Cc1ccc(Br)c(C#N)c1 [Compound 4.61, 5-({7-Amino-5-methyl-[1,2,5]oxadiazolo[3,4-b]pyridin-6-yl}methyl)-2-bromobenzonitrile]",0.542
4,"Cc1nc2nonc2c(N)c1Cc1cccnc1OC(F)F [Compound 4.47, 6-{[2-(Difluoromethoxy)pyridin-3-yl]methyl}-5-methyl-[1,2,5]oxadiazolo[3,4-b]pyridin-7-amine]",1.8
5,"Cc1nc2nonc2c(N)c1Cc1ccnc(C(F)(F)F)c1 [Compound 4.40, 5-Methyl-6-{[2-(trifluoromethyl)pyridin-4-yl]methyl}-[1,2,5]oxadiazolo[3,4-b]pyridin-7-amine]",2.21
6,"Cc1nc2nonc2c(N)c1Cc1ccc(C(F)(F)F)c(C#N)c1 [Compound 4.57, 5-({7-Amino-5-methyl-[1,2,5]oxadiazolo[3,4-b]pyridin-6-yl}methyl)-2-(trifluoromethyl)benzonitrile]",0.121
7,"Cc1nc2nonc2c(N)c1Cc1cccc(N=S(C)(C)=O)c1 [Compound 13.1, {[3-({7-Amino-5-methyl-[1,2,5]oxadiazolo[3,4-b]pyridin-6-yl}methyl)phenyl]imino}dimethyl-λ^6-sulfanone]",1.54
8,"Cc1nc2nonc2c(N)c1Cc1cccc2c1cnn2C [Compound 2.13, 5-Methyl-6-[(1-methyl-1H-indazol-4-yl)methyl]-[1,2,5]oxadiazolo[3,4-b]pyridin-7-amine]",0.66
9,"Cc1nc2nonc2c(N)c1Cc1ccc(OC(F)F)cc1 [Compound 4.33, 6-{[4-(Difluoromethoxy)phenyl]methyl}-5-methyl-[1,2,5]oxadiazolo[3,4-b]pyridin-7-amine]",0.114
10,"COc1cc(C#N)ccc1Cc1c(C)nc2nonc2c1N [Compound 2.4, 4-({7-Amino-5-methyl-[1,2,5]oxadiazolo[3,4-b]pyridin-6-yl}methyl)-3-methoxybenzonitrile]",0.133
11,"Cc1nc2nonc2c(N)c1Cc1ccc(OC(F)(F)F)nc1 [Compound 4.58, 5-Methyl-6-{[6-(trifluoromethoxy)pyridin-3-yl]methyl}-[1,2,5]oxadiazolo[3,4-b]pyridin-7-amine]",0.752
12,"Cc1nc2nonc2c(N)c1Cc1cccn2c(C)nnc12 [Compound 4.9, 5-Methyl-6-({3-methyl-[1,2,4]triazolo[4,3-a]pyridin-8-yl}methyl)-[1,2,5]oxadiazolo[3,4-b]pyridin-7-amine]",4.01
13,"COc1cc(Br)ccc1Cc1c(C)nc2nonc2c1N [Compound 2.3, 6-[(4-Bromo-2-methoxyphenyl)methyl]-5-methyl-[1,2,5]oxadiazolo[3,4-b]pyridin-7-amine]",0.06
14,"Cc1nc2nonc2c(N)c1Cc1ccc(-c2c[nH]nc2C(F)(F)F)nc1 [Compound 12.10, 5-Methyl-6-({6-[3-(trifluoromethyl)-1H-pyrazol-4-yl]pyridin-3-yl}methyl)-[1,2,5]oxadiazolo[3,4-b]pyridin-7-amine]",0.437
15,"COC(=O)c1cn2cc(Cc3c(C)nc4nonc4c3N)ccc2n1 [Compound 4.23, Methyl 6-({7-amino-5-methyl-[1,2,5]oxadiazolo[3,4-b]pyridin-6-yl}methyl)imidazo[1,2-a]pyridine-2-carboxylate]",7.76
16,"Cc1nc2nonc2c(N)c1Cc1ccc(Cl)nc1 [Compound 4.18, 6-[(6-Chloropyridin-3-yl)methyl]-5-methyl-[1,2,5]oxadiazolo[3,4-b]pyridin-7-amine]",1.65
17,"Cc1nc2nonc2c(N)c1Cc1ccc(C(F)(F)F)n2cnnc12 [Compound 4.12, 5-Methyl-6-{[5-(trifluoromethyl)-[1,2,4]triazolo[4,3-a]pyridin-8-yl]methyl}-[1,2,5]oxadiazolo[3,4-b]pyridin-7-amine]",0.571
18,"Cc1nc2nonc2c(N)c1Cc1ccc(C#N)c(OC(F)F)c1 [Compound 4.35, 4-({7-Amino-5-methyl-[1,2,5]oxadiazolo[3,4-b]pyridin-6-yl}methyl)-2-(difluoromethoxy)benzonitrile]",0.111
19,"Cc1nc2nonc2c(N)c1Cc1ccc(Br)cc1 [Compound 1.1, 6-[(4-Bromophenyl)methyl]-5-methyl-[1,2,5]oxadiazolo[3,4-b]pyridin-7-amine]",0.225
20,"Cc1nc2nonc2c(N)c1Cc1ccc(OC(F)F)n2cnnc12 [Compound 4.15, 6-{[5-(Difluoromethoxy)-[1,2,4]triazolo[4,3-a]pyridin-8-yl]methyl}-5-methyl-[1,2,5]oxadiazolo[3,4-b]pyridin-7-amine]",0.33

# The next lines start with the values.
row,IC50 [nM],Structure (SMILES)
1,0.176,"Cc1nc2nonc2c(N)c1Cc1ccc(C#N)c(OCC(F)F)c1 [Compound 21.2, 4-({7-Amino-5-methyl-[1,2,5]oxadiazolo[3,4-b]pyridin-6-yl}methyl)-2-(2,2-difluoroethoxy)benzonitrile]"
2,0.183,"Cc1nc2nonc2c(N)c1Cc1ccc(OC(F)(F)F)c(C(=O)N(C)C)c1 [Compound 15.1, 5-({7-Amino-5-methyl-[1,2,5]oxadiazolo[3,4-b]pyridin-6-yl}methyl)-N,N-dimethyl-2-(trifluoromethoxy)benzamide]"
3,4.16,"Cc1nc2nonc2c(N)c1Cc1ccc(C(=O)NCc2cnn(C)c2)cc1 [Compound 14.11, 4-({7-Amino-5-methyl-[1,2,5]oxadiazolo[3,4-b]pyridin-6-yl}methyl)-N-[(1-methyl-1H-pyrazol-4-yl)methyl]benzamide]"
4,0.278,"Cc1nc2nonc2c(N)c1Cc1ccc(C#N)c(OCC2(C(F)(F)F)CC2)c1 [Compound 21.7, 4-({7-Amino-5-methyl-[1,2,5]oxadiazolo[3,4-b]pyridin-6-yl}methyl)-2-{[1-(trifluoromethyl)cyclopropyl]methoxy}benzonitrile]"
5,0.26,"Cc1nc2nonc2c(N)c1Cc1ccc(OC(F)(F)F)c(C#N)c1 [Compound 16.1, 5-({7-Amino-5-methyl-[1,2,5]oxadiazolo[3,4-b]pyridin-6-yl}methyl)-2-(trifluoromethoxy)benzonitrile]"
6,2.93,"Cc1nc2nonc2c(N)c1Cc1ccc(C(=O)NCC2CN(C)CCO2)cc1 (stereo not shown) [Compound 14.3, 4-({7-Amino-5-methyl-[1,2,5]oxadiazolo[3,4-b]pyridin-6-yl}methyl)-N-[(4-methylmorpholin-2-yl)methyl]benzamide]"
7,0.475,"Cc1nc2nonc2c(N)c1Cc1ccc(Cl)c(C(=O)N(C)C)c1 [Compound 15.5, 5-({7-Amino-5-methyl-[1,2,5]oxadiazolo[3,4-b]pyridin-6-yl}methyl)-2-chloro-N,N-dimethylbenzamide]"
8,3.02,"Cc1nc2nonc2c(N)c1Cc1ccc(C(=O)NC2CCOC2)cc1 (stereo not shown) [Compound 14.12, 4-({7-Amino-5-methyl-[1,2,5]oxadiazolo[3,4-b]pyridin-6-yl}methyl)-N-(oxolan-3-yl)benzamide]"
9,0.726,"Cc1nc2nonc2c(N)c1Cc1ccc(CO)cc1 [Compound 17.1, [4-({7-Amino-5-methyl-[1,2,5]oxadiazolo[3,4-b]pyridin-6-yl}methyl)phenyl]methanol]"
10,5.12,"Cc1nc2nonc2c(N)c1Cc1ccc(C(=O)NCC(C)O)cc1 (stereo not shown) [Compound 14.15, 4-({7-Amino-5-methyl-[1,2,5]oxadiazolo[3,4-b]pyridin-6-yl}methyl)-N-(2-hydroxypropyl)benzamide]"
11,0.15,"Cc1nc2nonc2c(N)c1Cc1ccc(C#N)c(OCC(C)(C)O)c1 [Compound 21.6, 4-({7-Amino-5-methyl-[1,2,5]oxadiazolo[3,4-b]pyridin-6-yl}methyl)-2-(2-hydroxy-2-methylpropoxy)benzonitrile]"
